Results published in paper PMC6401477, “Quorum Sensing Signal Selectivity and the Potential for Interspecies Cross Talk” (mBio, 2019).
“And” between values parts separate entries of the source, which are not always exact repeats. Identical values can stand only once. Like-named read-outs stand apart in the source and are kept apart here.

Experiments:
CviR = biological target: T1, CviR (Chromobacterium violaceum, UniProt D3W065); assay: cell-based; conditions: C. violaceum CV026, violacein; read-out: EC50 CviR in native host
T1 construct: Violacein was used as a measure of CviR activity in C. violaceum (CV026); endogenous in cells; host or cells: C. violaceum CV026

RhlR [1] = biological target: T2, RhlR (Pseudomonas aeruginosa, UniProt P54292); assay: cell-based; type: cell-based, P. aeruginosa; conditions: for EC50: receptor expressed in E. coli (DH5α), arabinose-induced
T2 sequence (P54292 1-241): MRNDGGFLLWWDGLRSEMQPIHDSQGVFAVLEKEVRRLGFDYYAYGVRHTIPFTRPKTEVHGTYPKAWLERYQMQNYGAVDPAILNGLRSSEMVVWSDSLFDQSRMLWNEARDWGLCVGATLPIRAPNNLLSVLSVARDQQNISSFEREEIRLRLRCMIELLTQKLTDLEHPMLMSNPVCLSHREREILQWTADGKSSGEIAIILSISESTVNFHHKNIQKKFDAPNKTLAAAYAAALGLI

LuxR = biological target: T3, LuxR (Aliivibrio fischeri, UniProt P12746); assay: cell-based; conditions: V. fischeri MJ215, luminescence; read-out: EC50 LuxR in native host
T3 construct: endogenous in cells; host or cells: V. fischeri MJ215
T3 sequence (P12746 1-250): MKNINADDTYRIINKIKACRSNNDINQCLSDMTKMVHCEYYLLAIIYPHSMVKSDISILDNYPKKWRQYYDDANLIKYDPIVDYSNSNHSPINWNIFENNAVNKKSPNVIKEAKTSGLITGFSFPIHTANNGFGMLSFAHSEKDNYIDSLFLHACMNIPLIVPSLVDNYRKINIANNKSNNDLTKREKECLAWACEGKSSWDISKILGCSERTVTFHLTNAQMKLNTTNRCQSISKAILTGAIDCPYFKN

QscR [2] = biological target: T4, QscR (Pseudomonas aeruginosa, UniProt G3XD77); assay: cell-based; parameters: species or system P. aeruginosa; conditions: receptor expressed in E. coli (DH5α), arabinose-induced
T4 construct: expressed in transfected cells; host or cells: E. coli 5α (DH5α) with pJNQ and pPROBE-PPA1897
T4 sequence (G3XD77 1-237): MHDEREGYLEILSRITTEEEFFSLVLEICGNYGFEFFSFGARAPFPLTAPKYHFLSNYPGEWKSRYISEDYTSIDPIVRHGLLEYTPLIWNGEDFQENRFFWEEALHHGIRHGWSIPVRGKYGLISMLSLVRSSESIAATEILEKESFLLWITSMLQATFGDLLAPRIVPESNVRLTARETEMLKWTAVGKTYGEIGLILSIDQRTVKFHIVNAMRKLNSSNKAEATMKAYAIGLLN

LasR [3] = biological target: T5, LasR (Pseudomonas aeruginosa, UniProt P25084); assay: cell-based; parameters: species or system P. aeruginosa; conditions: receptor expressed in E. coli (DH5α), arabinose-induced
T5 construct: expressed in transfected cells; host or cells: E. coli 5α (DH5α) with pJNL and pPROBE-PrsaL
T5 sequence (P25084 1-239): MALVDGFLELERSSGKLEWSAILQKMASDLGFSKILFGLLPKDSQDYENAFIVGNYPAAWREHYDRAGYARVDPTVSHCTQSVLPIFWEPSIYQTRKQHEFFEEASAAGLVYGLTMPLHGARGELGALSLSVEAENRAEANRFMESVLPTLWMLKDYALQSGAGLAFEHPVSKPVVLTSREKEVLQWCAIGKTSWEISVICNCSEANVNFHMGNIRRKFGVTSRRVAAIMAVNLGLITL

BtaR1 [4] = biological target: T6, BtaR1 (Burkholderia thailandensis, UniProt Q2T543); assay: cell-based; parameters: species or system B. thailandensis
T6 sequence (Q2T543 1-239): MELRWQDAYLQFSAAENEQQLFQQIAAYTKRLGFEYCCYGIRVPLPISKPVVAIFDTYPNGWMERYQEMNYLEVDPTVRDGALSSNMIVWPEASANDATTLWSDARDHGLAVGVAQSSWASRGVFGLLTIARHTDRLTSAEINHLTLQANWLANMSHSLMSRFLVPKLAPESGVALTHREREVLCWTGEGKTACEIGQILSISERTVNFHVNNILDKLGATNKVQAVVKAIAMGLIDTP

LasR [5] = biological target: T5, LasR; assay: cell-based; conditions: P. aeruginosa PAO-SC4 (pPROBE-PrsaL); mean ± SEM, n ≥ 3; read-out: EC50 LasR in native host
QscR [6] = biological target: T4, QscR; assay: cell-based; conditions: P. aeruginosa PAO-SC4 (pPROBE-PPA1897); read-out: EC50 QscR in native host
BtaR1 [7] = biological target: T6, BtaR1; assay: cell-based; parameters: species or system B. thailandensis; remark: listed apart in the source
BtaR2 [8] = biological target: T7, BtaR2 (Burkholderia thailandensis, UniProt Q2T5X2); assay: cell-based; parameters: species or system B. thailandensis
T7 sequence (Q2T5X2 1-234): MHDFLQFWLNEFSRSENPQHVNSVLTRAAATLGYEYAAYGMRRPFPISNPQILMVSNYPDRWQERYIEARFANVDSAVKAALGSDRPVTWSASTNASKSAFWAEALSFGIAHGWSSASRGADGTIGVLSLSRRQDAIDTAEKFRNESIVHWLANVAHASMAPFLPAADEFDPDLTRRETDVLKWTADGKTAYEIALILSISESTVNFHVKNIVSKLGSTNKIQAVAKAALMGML

BtaR2 [9] = biological target: T7, BtaR2; assay: cell-based; parameters: species or system B. thailandensis; remark: listed apart in the source
RhlR [10] = biological target: T2, RhlR; type: cell-based; conditions: at 1 mM; native P. aeruginosa reporter
RhlR [11] = biological target: T2, RhlR; assay: cell-based; parameters: species or system P. aeruginosa; conditions: rhlR overexpressed via pJNR in PAO-SC4; mean ± SEM, n ≥ 3; read-out: EC50 overexpression (RhlR)

SMILES | EC50 (CviR) [µM] | effect on RhlR activity in E. coli (RhlR [1]; AHL 100 µM (Fig. S3)) | EC50 (RhlR [1]) [µM] | EC50 (LuxR) | EC50 (QscR [2]) [µM] | EC50 (LasR [3]) [µM] | EC50 (BtaR1 [4]) [µM] | EC50 (LasR [5]) [µM] | EC50 (QscR [6]) [µM] | EC50 (BtaR1 [7]) [µM] | EC50 (BtaR2 [8]) [µM] | EC50 (BtaR2 [9]) [µM] | saturation of RhlR activity (RhlR [10]) | EC50 (RhlR [11]) [µM]
CCCCCCCCCC(=O)CC(=O)N[C@H]1CCOC1=O [3OC12-HSL, N-3-oxo-dodecanoyl-L-homoserine lactone] | > 100 | does not affect | > 100 | 7.1 ± 2 µM | – | – | – | – | – | – | – | – | – | –
CCCCCCCC(=O)CC(=O)N[C@H]1CCOC1=O [3OC10-HSL] | > 100 | – | > 100 | 4 ± 0.51 µM | 0.26 ± 0.16 | 0.21 ± 0.06 | 2.83 ± 1.61 | – | – | – | – | – | – | –
CCCCCC(O)CC(=O)N[C@H]1CCOC1=O (stereo partly drawn) [3OHC8-HSL, N-3-hydroxyoctanoyl-L-homoserine lactone] | 21.2 ± 6.6 | – | > 100 | > 100 µM | 5.82 ± 1.49 | – | – | > 100 | > 100 | – | – | – | – | –
CCCC(=O)CC(=O)N[C@H]1CCOC1=O [3OC6-HSL] | 0.98 ± 0.26 | – | – | 0.272 µM and 0.27 µM | – | – | > 100 | – | > 100 | > 100 | > 100 | – | – | –
CCCCCCCCCCCCCCCC(=O)N[C@H]1CCOC1=O [C16-HSL] | > 100 | – | > 100 | > 100 µM | > 100 | – | – | > 100 | > 100 | – | > 100 | > 100 | – | –
CCCCCCCCCCCCCC(=O)CC(=O)N[C@H]1CCOC1=O [3OC16-HSL] | > 100 | – | > 100 | > 100 µM | 0.17 ± 0.07 | 0.13 ± 0.03 | 1.37 ± 0.27 | 7.05 ± 1.88 | > 100 | > 100 | – | – | – | –
CC(O)CC(=O)N[C@H]1CCOC1=O (stereo partly drawn) [3OHC4-HSL] | > 100 | – | > 100 | > 100 µM | > 100 | > 100 | – | > 100 | > 100 | > 100 | 25 ± 2.6 | – | – | –
CCCCCC(=O)N[C@H]1CCOC1=O [C6-HSL] | 0.0834 ± 0.0245 | – | 134 ± 26 | – | – | > 100 | – | > 100 | > 100 | – | > 100 | – | – | –
CCCCCCCCCC(=O)N[C@H]1CCOC1=O [C10-HSL, N-decanoyl-L-homoserine lactone] | > 100 | – | > 100 | 42 ± 7.6 µM | – | 8.67 ± 1.49 | – | – | – | – | – | – | – | –
CCCCCCCCCC(O)CC(=O)N[C@H]1CCOC1=O (stereo partly drawn) [3OHC12-HSL] | > 100 | – | > 100 | > 100 µM | 0.11 ± 0.05 | 1.23 ± 0.86 | – | 48.4 ± 13.2 | 23.9 ± 9.2 | – | 0.0915 ± 0.0252 | – | – | –
CCCC(=O)N[C@H]1CCOC1=O [C4-HSL, N-butyryl-L-homoserine lactone] | 14.3 ± 3.8 | – | 122 ± 17 | > 100 µM | > 100 | > 100 | – | > 100 | > 100 | > 100 | > 100 | > 100 | not saturated | 12 ± 3.1
CCCCCCCC(=O)N[C@H]1CCOC1=O [C8-HSL] | 1.66 ± 0.92 | – | – | – | 1.9 ± 0.27 | – | – | > 100 | > 100 | – | – | 13.9 ± 2.1 | – | –
CCCCCCCCCCCC(=O)CC(=O)N[C@H]1CCOC1=O [3OC14-HSL, N-3-oxotetradecanoyl-L-homoserine lactone] | > 100 | – | > 100 | > 100 µM | – | 0.0125 ± 0.0045 | 1.26 ± 0.25 | 2.35 ± 0.66 | – | > 100 | – | – | – | –
CCCCCCCCCCCC(=O)N[C@H]1CCOC1=O [C12-HSL] | > 100 | – | > 100 | > 100 µM | – | 0.66 ± 0.07 | – | – | – | – | – | – | – | –
CCCCCCCC(O)CC(=O)N[C@H]1CCOC1=O (stereo partly drawn) [3OHC10-HSL] | – | – | > 100 | > 100 µM | 0.0299 ± 0.0134 | 7.91 ± 0.45 | 1.82 ± 0.07 | – | – | – | – | – | – | –
CCCC(O)CC(=O)N[C@H]1CCOC1=O (stereo partly drawn) [3OHC6-HSL] | – | – | > 100 | – | > 100 | > 100 | > 100 | > 100 | > 100 | > 100 | – | – | – | –
CCCCCCCCCCCCCC(=O)N[C@H]1CCOC1=O [C14-HSL] | > 100 | – | > 100 | > 100 µM | 0.0896 ± 0.0201 | 0.36 ± 0.13 | 0.97 ± 0.35 | – | > 100 | – | – | – | – | –
CCCCCC(=O)CC(=O)N[C@H]1CCOC1=O [3OC8-HSL] | 5.47 ± 0.27 | – | – | 0.49 ± 0.11 µM | – | 17.4 ± 6.5 | 1.1 ± 0.29 | 59.1 ± 7.5 | – | – | – | – | – | –
CCCCCCCCCCCC(O)CC(=O)N[C@H]1CCOC1=O (stereo partly drawn) [3OHC14-HSL] | > 100 | – | > 100 | > 100 µM | 0.15 ± 0.04 | 0.2 ± 0.02 | 2.23 ± 0.73 | 2.66 ± 0.68 | – | > 100 | – | – | – | –
